Reference: patent US12662491B2 (Redona Therapeutics, Inc., priority 2020, dated 2026)

What follows are molecules tested against T1, Zcchc11 enzyme (Homo sapiens, UniProt Q5TAX3) (assay: TUTase assay (Zcchc11 assay, Lin28a-dependent polyuridylation of pre-let-7)). Settings: Lin28a-dependent Zcchc11 (Z11) TUTase activity; read-out: Potency Lin28a-dep Z11 IC50.
T1 construct: made in house; host or cells: HEK293 cells (Zcchc11); E. coli Rosetta II (LIN28A)
T1 sequence (Q5TAX3 212-1420): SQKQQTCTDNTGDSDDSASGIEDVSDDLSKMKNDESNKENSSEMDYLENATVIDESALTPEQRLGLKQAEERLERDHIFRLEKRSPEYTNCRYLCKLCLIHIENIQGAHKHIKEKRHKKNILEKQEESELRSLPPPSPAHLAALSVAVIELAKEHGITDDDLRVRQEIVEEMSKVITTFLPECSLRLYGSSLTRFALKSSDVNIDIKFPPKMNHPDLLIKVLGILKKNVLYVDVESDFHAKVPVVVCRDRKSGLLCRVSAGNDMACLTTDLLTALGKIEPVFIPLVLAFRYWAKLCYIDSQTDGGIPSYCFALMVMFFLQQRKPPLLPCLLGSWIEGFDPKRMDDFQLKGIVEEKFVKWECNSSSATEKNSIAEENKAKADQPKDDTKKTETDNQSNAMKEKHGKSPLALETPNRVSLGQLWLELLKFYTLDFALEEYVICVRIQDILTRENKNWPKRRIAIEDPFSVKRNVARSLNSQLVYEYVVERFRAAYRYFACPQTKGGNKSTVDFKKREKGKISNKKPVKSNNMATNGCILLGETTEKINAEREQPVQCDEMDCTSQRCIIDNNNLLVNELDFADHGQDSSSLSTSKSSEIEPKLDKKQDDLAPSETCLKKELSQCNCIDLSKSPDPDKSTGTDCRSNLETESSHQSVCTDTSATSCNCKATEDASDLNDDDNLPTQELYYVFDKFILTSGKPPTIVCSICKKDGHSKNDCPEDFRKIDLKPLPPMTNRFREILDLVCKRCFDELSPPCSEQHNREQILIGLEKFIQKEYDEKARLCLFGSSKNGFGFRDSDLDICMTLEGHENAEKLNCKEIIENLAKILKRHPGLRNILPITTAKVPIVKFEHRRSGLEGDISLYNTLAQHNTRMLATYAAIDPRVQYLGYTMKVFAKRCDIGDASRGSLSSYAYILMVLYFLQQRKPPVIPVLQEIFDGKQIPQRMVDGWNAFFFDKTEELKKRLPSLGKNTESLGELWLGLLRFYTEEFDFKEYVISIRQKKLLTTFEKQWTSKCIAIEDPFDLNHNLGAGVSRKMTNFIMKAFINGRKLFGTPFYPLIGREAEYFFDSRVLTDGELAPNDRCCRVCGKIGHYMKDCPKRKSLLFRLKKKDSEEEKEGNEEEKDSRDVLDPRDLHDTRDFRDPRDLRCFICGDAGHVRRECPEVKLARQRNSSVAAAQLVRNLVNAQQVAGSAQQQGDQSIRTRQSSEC
Type: biochemical
Procedure, shortened: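 Human Zcchc11 residues 212-1420 (HEK293-expressed, MBP tag cleaved, C-terminal FLAG) at 0.2 nM, with 10 nM full-length human LIN28A and 2 nM 5′-fluorescein pre-let-7, preincubated with compound 30 min at room temperature. Reaction started with 5 uM UTP plus 4 nM 3′-rhodamine A20 quench probe; fluorescein loss read kinetically, IC50 from initial rates.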

| IC50 [nM] | Compound |
| --- | --- |
| ≤ 1000 | CN(C)C1CN(c2ccc(-n3cc(C(=O)O)c(=O)c4cc(Cl)c(N5C6CC6C[C@@H]5COc5nc(OC6CC6)ccc5Cl)cc43)cn2)C1 (stereo partly drawn) [Compound 271, 6-chloro-7-((3R)-3-(((3-chloro-6-cycloprop-oxypyridin-2-yl)oxy)methyl)-2-azabicyclo [3.1.0]hexan-2-yl)-1-(6-(3-(dimethyl-amino)azetidin-1-yl)pyridin-3-yl)-4-oxo-1,4-dihydro-quinoline-3-carboxylic acid] |
| ≤ 1000 | CN(C)C1CN(c2ccc(-n3cc(C(=O)O)c(=O)c4cc(Cl)c(N5CCC(C)(C)C5COc5nc(OC6CC6)ccc5Cl)cc43)cn2)C1 (centres unmarked) [Compound 272, 6-chloro-7-(2-(((3-chloro-6-cycloprop-oxypyridin-2-yl)oxy)methyl)-3,3-dimethyl-pyrrolidin-1-yl)-1-(6-(3-(dimethyl-amino)azetidin-1-yl)pyridin-3-yl)-4-oxo-1,4-dihydro-quinoline-3-carboxylic acid] |
| ≤ 1000 | CN(C)C1CN(c2ccc(-n3cc(C(=O)O)c(=O)c4cc(Cl)c(N5CCC[C@@H]5COc5nc6ncn(C)c6cc5Cl)cc43)cn2)C1 [Compound 273, (R)-6-chloro-7-(2-(((6-chloro-1-methyl-1H-imidazo [4,5-b]pyridin-5-yl)oxy)methyl)pyrrolidin-1-yl)-1-(6-(3-(dimethyl-amino)azetidin-1-yl)pyridin-3-yl)-4-oxo-1,4-dihydro-quinoline-3-carboxylic acid formic acid] |
| ≤ 1000 | CN(C)C1CN(c2ccc(-n3cc(C(=O)O)c(=O)c4cc(Cl)c(N5CC(OC6CC6)C[C@@H]5COc5ncccc5Cl)cc43)cn2)C1 (stereo partly drawn) [Compound 275, 6-chloro-7-((2R)-2-(((3-chloropyridin-2-yl)oxy)methyl)-4-cycloprop-oxypyrrolidin-1-yl)-1-(6-(3-(dimethyl-amino)azetidin-1-yl)pyridin-3-yl)-4-oxo-1,4-dihydro-quinoline-3-carboxylic acid] |
| ≤ 1000 | CN(C)C1CN(c2ccc(-n3cc(C(=O)O)c(=O)c4cc(Cl)c(N5CC(c6cn(C)cn6)C[C@@H]5COc5ncccc5Cl)cc43)cn2)C1 (stereo partly drawn) [Compound 276, 6-chloro-7-((2R)-2-(((3-chloropyridin-2-yl)oxy)methyl)-4-(1-methyl-1H-imidazol-4-yl)pyrrolidin-1-yl)-1-(6-(3-(dimethyl-amino)azetidin-1-yl)pyridin-3-yl)-4-oxo-1,4-dihydro-quinoline-3-carboxylic acid] |
| ≤ 1000 | CN(C)C1CN(c2ccc(-n3cc(C(=O)O)c(=O)c4cc(Cl)c(N5CCC[C@]5(C)COc5ncccc5Cl)cc43)cn2)C1 [Compound 277, (R)-6-chloro-7-(2-(((3-chloropyridin-2-yl)oxy)methyl)-2-methyl-pyrrolidin-1-yl)-1-(6-(3-(dimethyl-amino)azetidin-1-yl)pyridin-3-yl)-4-oxo-1,4-dihydro-quinoline-3-carboxylic acid formic acid] |
| ≤ 1000 | COCCN(C)C1CN(c2ccc(-n3cc(C(=O)O)c(=O)c4cc(F)c(N5CCC[C@@H]5COc5ncccc5Cl)cc43)cn2)C1 [Compound 278, (R)-7-(2-(((3-chloropyridin-2-yl)oxy)methyl)pyrrolidin-1-yl)-6-fluoro-1-(6-(3-((2-methoxyethyl) (methyl)amino)azetidin-1-yl)pyridin-3-yl)-4-oxo-1,4-dihydro-quinoline-3-carboxylic acid] |
| ≤ 1000 | COc1ccc(Cl)c(OCC23CC(CN2c2nc4c(cc2Cl)c(=O)c(C(=O)O)cn4-c2ccc(N4CC(N(C)C)C4)nc2)C3)n1 [Compound 279, 6-chloro-7-(1-(((3-chloro-6-methoxy-pyridin-2-yl)oxy)methyl)-2-azabicyclo [2.1.1]hexan-2-yl)-1-(6-(3-(dimethyl-amino)azetidin-1-yl)pyridin-3-yl)-4-oxo-1,4-dihydro-1,8-naphthyridine-3-carboxylic acid formic acid] |
| ≤ 1000 | CN(C)C1CN(c2cnc(-n3cc(C(=O)O)c(=O)c4cc(C#N)c(N5CCC[C@@H]5COc5ncccc5Cl)nc43)cn2)C1 [Compound 280, (R)-7-(2-(((3-chloropyridin-2-yl)oxy)methyl)pyrrolidin-1-yl)-6-cyano-1-(5-(3-(dimethyl-amino)azetidin-1-yl)pyrazin-2-yl)-4-oxo-1,4-dihydro-1,8-naphthyridine-3-carboxylic acid] |
| ≤ 1000 | Cn1cc(-n2cc(C(=O)O)c(=O)c3cc(C#N)c(N4CCC[C@H]4COc4ncccc4Cl)nc32)cn1 [Compound 281, (S)-7-(2-(((3-chloropyridin-2-yl)oxy)methyl)pyrrolidin-1-yl)-6-cyano-1-(1-methyl-1H-pyrazol-4-yl)-4-oxo-1,4-dihydro-1,8-naphthyridine-3-carboxylic acid] |
| ≤ 1000 | CN(C)C1CN(c2ccc(-n3cc(C(=O)O)c(=O)c4cc(Cl)c(N5C6CCC5(COc5ncccc5Cl)CC6)cc43)cn2)C1 [Compound 282, 6-chloro-7-(1-(((3-chloropyridin-2-yl)oxy)methyl)-7-azabicyclo [2.2.1]heptan-7-yl)-1-(6-(3-(dimethyl-amino)azetidin-1-yl)pyridin-3-yl)-4-oxo-1,4-dihydro-quinoline-3-carboxylic acid] |
| 10000 to 50000 | N#Cc1cc2c(=O)c(C(=O)O)cn(-c3cnccn3)c2nc1N1CCC[C@@H]1COc1ccccc1 [Compound 283, (R)-6-cyano-4-oxo-7-(2-(phenoxy-methyl)pyrrolidin-1-yl)-1-(pyrazin-2-yl)-1,4-dihydro-1,8-naphthyridine-3-carboxylic acid] |
| ≤ 1000 | CN(C)C1CN(c2ccc(-n3cc(C(=O)O)c(=O)c4cc(C#N)c(N5CCC[C@]5(C)COc5ncccc5F)cc43)cn2)C1 [Compound 284, (R)-6-cyano-1-(6-(3-(dimethyl-amino)azetidin-1-yl)pyridin-3-yl)-7-(2-(((3-fluoropyridin-2-yl)oxy)methyl)-2-methyl-pyrrolidin-1-yl)-4-oxo-1,4-dihydro-quinoline-3-carboxylic acid] |
| ≤ 1000 | CN(C)C1CN(c2ccc(-n3cc(C(=O)O)c(=O)c4cc(C#N)c(N5CCC[C@@]5(C)COc5ncccc5F)cc43)cn2)C1 [Compound 285, (S)-6-cyano-1-(6-(3-(dimethyl-amino)azetidin-1-yl)pyridin-3-yl)-7-(2-(((3-fluoropyridin-2-yl)oxy)methyl)-2-methyl-pyrrolidin-1-yl)-4-oxo-1,4-dihydro-quinoline-3-carboxylic acid] |
| > 50000 | O=C(O)c1cn(-c2cnccn2)c2cc(N3C(=O)CC[C@@H]3COc3ccccn3)c(Cl)cc2c1=O [Compound 286, (R)-6-chloro-4-oxo-7-(2-oxo-5-((pyridin-2-yloxy)methyl)pyrrolidin-1-yl)-1-(pyrazin-2-yl)-1,4-dihydro-quinoline-3-carboxylic acid] |
| 10000 to 50000 | O=C(O)c1cn(-c2ccc(N3CCC3)nc2)c2cc(N3C(=O)CC[C@@H]3COc3ccccn3)c(Cl)cc2c1=O [Compound 287, (R)-1-(6-(azetidin-1-yl)pyridin-3-yl)-6-chloro-4-oxo-7-(2-oxo-5-((pyridin-2-yloxy)methyl)pyrrolidin-1-yl)-1,4-dihydro-quinoline-3-carboxylic acid] |
| > 50000 | CC1(n2cc(C(=O)O)c(=O)c3cc(Cl)c(N4C(=O)CC[C@H]4COc4ccccn4)cc32)CC1 [Compound 288, (S)-6-chloro-1-(1-methylcyclo-propyl)-4-oxo-7-(2-oxo-5-((pyridin-2-yloxy)methyl)pyrrolidin-1-yl)-1,4-dihydro-quinoline-3-carboxylic acid] |
